# From patent publication US20230010110A1, “HISTATIN-1 FORMULATION FOR THE TREATMENT, REPAIR OR REGENERATION OF BONE TISSUE IN A SUBJECT” (UNIVERSIDAD DE CHILE, priority 2019, published 2023)
# “Also recorded” adds a separate entry of the source.
# Key:
# [1] = test system: Runx2, osteocalcin, osteopontin and ALP mRNA in MC3T3-E1 cells; test: RT qPCR of osteoblastic differentiation markers; format: cell-based; details: MC3T3-E1, 10 μM, 7 days
# Experimental: (§1) (A) MC3T3-E1 and (B) AMPCs cells were treated or not with 10 μM Histatin-1 for 7 days. Total RNA was extracted, for subsequent RT qPCR analysis of Runx2, osteocalcin, osteopontin and ALP.
# (§2) To evaluate the differentiation towards bone lineage in the presence of Histatin-1, the expression of the osteocalcin, osteopontin, Runx2 and ALP gene were determined, as markers of differentiation, by means of a qPCR assay for mRNA content analysis. For this, osteoblasts-like cells and stem cells from the apical papilla were grown in complete medium supplemented with bovine serum, in the absence or presence of 10 μM Histatin-1 for 24 h. Total RNA was extracted with TRIZOL (Invitrogen, Life Technologies), following the manufacturer's instructions. For cDNA synthesis, samples were treated with RNase-Free DNase kit (#M6101 Promega), quantified and purity was verified for subsequent reverse transcription, using the cDNA Reverse Transcription Kit (Applied Biosystems). Alkaline phosphatase, osteocalcin, osteopontin, Runx2 and GAPDH were quantified by qRT-PCR (Applied Biosystems, ΔΔCt method).
# (§3) Total RNA was extracted, for subsequent RT qPCR analysis of Runx2, osteocalcin, osteopontin and ALP. Relative abundance of all screened mRNAs was normalized to GAPDH, by using the ΔΔCT method. Graphs show data obtained by averaging 3 independent experiments (mean±s.e.m.; *p<0.05; **p<0.01).
# [2] = test system: Runx2, osteocalcin, osteopontin and ALP mRNA in APMCs; test: RT qPCR of osteoblastic differentiation markers; format: cell-based; details: 10 μM, 7 days
# Experimental: as §1, §2, §3
# [3] = test system: β-catenin in SAOS-2 cells; test: Western blot of β-catenin in whole cell lysates; format: cell-based; details: SAOS-2, 10 μM, 24 h
# Experimental: (§4) In (A) SAOS-2 cells were incubated in the absence or presence of 10 μM Histatin-1 for 24 h, and whole cell lysates were prepared for Western blot analysis of β-catenin. […] In (B) SAOS-2 cells were incubated with Histatin-1 for 24 hours. Cells were then fixed, permeabilized and incubated with primary and secondary antibodies for subsequent immunofluorescence analysis of total and non-phosphorylated (transcriptionally active) β-catenin.
# (§5) By Western blot assay, the effect of Histatin-1 on the expression of two proteins involved in the osteogenesis process (alkaline phosphatase, β-catenin) was evaluated. For this, SAOS-2 or MC3T3-E1 cells were seeded on 60 mm plates, grown in complete medium supplemented with bovine serum for 24 h, washed with PBS and then incubated for 24 h with either serum-free medium or serum-free medium containing 10 μM Histatin-1. […] Bound first antibodies were detected with HRP-conjugated second antibodies and detected with the EZ-ECL system.
# Representative Western blot images are shown, and relative levels of β catenin were quantified by scanning densitometry and normalized to actin. […] (B) SAOS 2 cells were treated or not with 10 μM Histatin 1 for 24 h, then fixed, permeabilized and analyzed incubated with primary and secondary antibodies for subsequent immunofluorescence analysis of total and non-phosphorylated (transcriptionally active) β-catenin. […]
# [4] = test system: dental pulp mesenchymal cells; test: in vitro mineralization test (alizarin red); format: cell-based; details: dental pulp mesenchymal (stem) cells, 10 μM, 7 days
# Experimental: (§6) The ability of Histatin-1 to stimulate the formation of calcium deposits was determined by the alizarin red staining test. For this, SAOS-2 cells, MC3T3-E1 preosteoblasts, stem cells from the apical papilla or dental pulp stem cells were grown in complete medium supplemented with bovine serum, in the absence or presence 10 μM Histatin-1 for 7 days. […] Cells were washed with PBS, fixed with 4% paraformaldehyde, and stained with Alizarin Red aqueous solution for 1 h. Finally, samples were washed with distilled water and subsequently with PBS. Calcium deposits were visualized in an optic microscope. Representative images are shown, and graphs represent the quantification of the amount of calcium deposits. Values are shown as the mean±s.e.m (*p<0.01; ***p<0.001).
# (§7) The same procedure was performed on stem cells of the apical papilla and dental pulp.
# [5] = test system: stem cells from the apical papilla (APMCs); test: in vitro mineralization test (alizarin red); format: cell-based; details: 10 μM, 7 days
# Experimental: as §6, §7
# [6] = test system: Alkaline Phosphatase (ALP) in SAOS-2 cells; test: Western blot of alkaline phosphatase in whole cell lysates; format: cell-based; details: SAOS-2, 10 μM, 24 h
# Experimental: (§8) In (A) SAOS-2 and (B) MC3T3-E1 cells were incubated in the absence or presence of 10 μM Histatin-1 for 24 h, and whole cell lysates were analyzed by Western blotting of ALP. […] In (C) SAOS-2 cells were treated or not with 10 μM Histatin-1 for 24 and 48 h, and the activity of alkaline phosphatase (ALP) was measured by metabolization of the substrate p-nitrophenyl phosphate, following absorbance at 405 nm.
# as §5
# (§9) Representative Western blot images are shown, and relative levels of ALP were quantified by scanning densitometry and normalized to actin. […] (C) SAOS 2 cells were treated or not with 10 μM Histatin 1 for 24 and 48 h, and the activity of alkaline phosphatase (ALP) was measured by metabolization of the substrate p-nitrophenyl phosphate, following absorbance at 405 nm. […]
# [7] = test system: Alkaline Phosphatase (ALP) in MC3T3-E1 cells; test: as above; format: cell-based; details: MC3T3-E1, 10 μM, 24 h
# Experimental: as §8, §5, §9
# [8] = test system: SAOS-2 osteosarcoma cells; test: in vitro cell adhesion to fibronectin coated plates, crystal violet staining; format: cell-based; details: SAOS-2, 10 μM Histatin-1, fibronectin 2 μg/ml, 5-60 min, serum-free medium
# Experimental: (§10) For this, (A) SAOS 2 cells were collected, resuspended in serum-free medium either containing or not 10 μM Histatin-1, and incubated for 30 min. Cells were then allowed to attach to fibronectin coated plates (2 μg/ml) for 5, 10, 15, 30, 45 and 60 min in serum-free medium, containing or not 10 μM Histatin-1. Cell adhesion was detected by crystal violet staining and counting under an optic microscope. Representative images are shown for each time point, in the absence or presence of Histatin 1. […] (B, C and D) Cell migration was measured in Transwell chambers coated with 2 μg/ml fibronectin. Briefly, SAOS 2 (B), MC3T3 E1 cells (C) and APMCs (apical papilla mesenchymal cells, D) were allowed to migrate for 60 min in Transwell chambers, in the presence of 10 μM Histatin 1 or 10 μM of non-phosphorylated Histatin 1 (no P), 10 μM of a scramble sequence or vehicle control (H2O). Cells that migrated were visualized by crystal violet staining. Representative images are shown, and graphs represent the averages of 3 independent experiments (mean±s.e.m; *p<0.05; **p<0.01).
# osteoblastic cells = details: zoledronic acid challenge; cited from earlier work
# endothelial cells = details: in vitro; cited from earlier work
# [9] = test system: Alkaline Phosphatase (ALP) in SAOS-2 cells; test: alkaline phosphatase activity, p-nitrophenyl phosphate, absorbance at 405 nm; format: cell-based; details: SAOS-2, 10 μM, 24 and 48 h
# Experimental: as §8
# Representative Western blot images are shown, and relative levels of ALP were quantified by scanning densitometry and normalized to actin. Graphs represent the average from 3 independent experiments (mean±s.e.m.; *p<0.05). (C) SAOS 2 cells were treated or not with 10 μM Histatin 1 for 24 and 48 h, and the activity of alkaline phosphatase (ALP) was measured by metabolization of the substrate p-nitrophenyl phosphate, following absorbance at 405 nm. Data were averaged from 3 independent experiments and shown as residual activity (% increase with respect to the control condition; mean±s.e.m; *p<0.05).
# [10] = test system: β-catenin in SAOS-2 cells; test: immunofluorescence of total and non-phosphorylated β-catenin nuclear localization; format: cell-based; details: SAOS-2, 10 μM, 24 h
# Experimental: as §4
# Representative Western blot images are shown, and relative levels of β catenin were quantified by scanning densitometry and normalized to actin. Graphs represent the average from 3 independent experiments (mean±s.e.m.; *p<0.05). (B) SAOS 2 cells were treated or not with 10 μM Histatin 1 for 24 h, then fixed, permeabilized and analyzed incubated with primary and secondary antibodies for subsequent immunofluorescence analysis of total and non-phosphorylated (transcriptionally active) β-catenin. Left panels show representative confocal microscopy images of total and active β-catenin, whereas nuclei staining with DAPI was used as reference. […]
# Alternatively, SAOS-2 cells grown on coverslips were fixed, permeabilized and analyzed for total and active β-catenin nuclear localization.
# SAOS-2 cells = test: in vitro mineralization test (alizarin red); format: cell-based; details: SAOS-2, 10 μM, 7 days
# Experimental: as §6
# MC3T3-E1 preosteoblasts = test: in vitro mineralization test (alizarin red); format: cell-based; details: MC3T3-E1, 10 μM, 7 days
# Experimental: as §6
# [11] = test system: SAOS-2 osteosarcoma cells; test: Transwell cell migration assay; format: cell-based; details: SAOS-2, 10 μM, 60 min, Transwell coated with 2 μg/ml fibronectin
# Experimental: as §10
# [12] = test system: apical papilla mesenchymal cells, APMCs; test: Transwell cell migration assay; format: cell-based; details: 10 μM, 60 min, Transwell coated with 2 μg/ml fibronectin
# Experimental: as §10
# MC3T3-E1 pre-osteoblasts = test: Transwell cell migration assay; format: cell-based; details: MC3T3-E1, 10 μM, 60 min, Transwell coated with 2 μg/ml fibronectin
# Experimental: as §10
# angiogenesis = details: in vivo; cited from earlier work
substance,measurement,setting,value
"Histatin-1: human salivary peptide of 38 amino acids, obtained by chemical synthesis, with the sequence SEQ ID NO. 1 (DSHEKRHHGYRRKFHEKHHSHREFPFYGDYGSNYLYDN; listed as Homo sapiens)","mRNA of osteoblastic differentiation markers (Runx2, osteocalcin, osteopontin, ALP), normalized to GAPDH",[1],increases the mRNA of different osteoblastic differentiation markers; also recorded: induces an increase in the relative abundance of mRNA
same,"mRNA of osteoblastic differentiation markers (Runx2, osteocalcin, osteopontin, ALP), normalized to GAPDH",[2],increases the mRNA of different osteoblastic differentiation markers; also recorded: induces an increase in the relative abundance of mRNA
same,"protein levels of β-catenin (Western blot, normalized to actin)",[3],increases the protein levels of β-catenin; also recorded: increases the expression of the protein
same,calcium deposits / crystal nucleation sites (alizarin red),[4],increases the number of crystal nucleation sites; also recorded: stimulated the formation of calcium deposits
same,calcium deposits / crystal nucleation sites (alizarin red),[5],increases the number of crystal nucleation sites; also recorded: stimulated the formation of calcium deposits
same,"protein levels of ALP (Western blot, normalized to actin)",[6],increases the protein levels of ALP; also recorded: increased the production of this enzyme
same,"protein levels of ALP (Western blot, normalized to actin)",[7],increases the protein levels of ALP
same,cell adhesion,[8],favors both cell adhesion and migration
same,cell migration in cells challenged with zoledronic acid,osteoblastic cells,restored both cell migration and viability
same,cell viability in cells challenged with zoledronic acid,osteoblastic cells,restored both cell migration and viability
same,endothelial cell migration,endothelial cells,stimulating endothelial cell migration
same,formation of endothelial structures,endothelial cells,formation of endothelial structures in vitro
same,activity of alkaline phosphatase (ALP),[9],increases the activity of ALP
same,nuclear localization of active (non-phosphorylated) β-catenin,[10],increases the nuclear localization of total and active β-catenin
same,nuclear localization of total β-catenin,[10],increases the nuclear localization of total and active β-catenin
same,calcium deposits / crystal nucleation sites (alizarin red),SAOS-2 cells,increases the number of crystal nucleation sites; also recorded: increased staining of the culture with Alizarin Red
same,calcium deposits / crystal nucleation sites (alizarin red),MC3T3-E1 preosteoblasts,increases the number of crystal nucleation sites; also recorded: increased staining of the culture with Alizarin Red
same,cell migration,[11],favors both cell adhesion and migration
same,cell migration,[12],favors both cell adhesion and migration
same,cell migration,MC3T3-E1 pre-osteoblasts,favors both cell adhesion and migration
same,angiogenesis,angiogenesis,angiogenesis in vivo
